Data reported in patent US6593347B2, “Nitrosated and nitrosylated nonsteroidal antiinflammatory compounds, compositions and methods of use” (NitroMed, Inc., priority 1998, dated 2003).
Counter-ions that a name gives are not always drawn.

Tests used:
[1] = system: phenylbenzoquinone-induced writhing; test: phenylbenzoquinone-induced writhing test in mice (analgesic activity); format: in vivo; conditions: ratio of activity relative to the parent NSAID; oral gavage 1 hour prior to i.p. phenylbenzoquinone; male CD-1 mice
Description: The phenylbenzoquinone-induced writhing test in mice was used to measure analgesic activity. The ability of the compounds to inhibit phenylbenzoquinone-induced writhing in mice was measured using the method of Siegmund et al, Proc. Soc. Exp. Biol. Med. 95: 729-731, 1957. Male CD-1 mice (Charles River Laboratories, Wilmington, Mass.) weighing 20-25 g were fasted overnight. Vehicle or compounds were administered by oral gavage 1 hour prior to i.p. injection of 2 mg/kg of phenylbenzoquinone. Five minutes after the i.p. injection of phenylbenzoquinone, the number of writhes in a 5 minute period was counted.

[2] = system: carrageenan rat paw edema; test: rat paw edema test (antiinflammatory activity); format: in vivo; conditions: ratio of activity relative to the parent NSAID; oral gavage one hour prior to carrageenan; paw volume three hours later; male Sprague-Dawley rats
Description: The rat paw edema test was used to measure antiinflammatory activity. The rat paw edema test was performed according to the method of Winter et al, Proc. Soc. Exp. Biol. Med. 111: 544-547, 1962. Male Sprague-Dawley rats (250-275 g) were fasted overnight and dosed by oral gavage with vehicle or suspensions of compound one hour prior to the subplantar injection of 50 μl of 1% suspension of carrageenan. Three hours later, the paw volume was measured and compared with the initial volume measured immediately after carrageenan injection.

gastric lesion = test: rat gastric lesion test; format: in vivo, rats
Description: The rat gastric lesion test, described by Kitagawa et al, J. Phirmacol. Exp. Ther., 253:1133-1137 (1990), and Al-Ghamdi et al, J. Int. Med. Res., 19:2242 (1991), was used to evaluate the activity of compounds to produce gastric lesion. Male Sprague Dawley rats (Charles River Laboratories, Wilmington, Mass.) weighing 230-250 g were used for the experiments. The rats were housed with laboratory chow and water ad libitum prior to the study. The rats were fasted for 24 hours with free access to water and then dosed by oral gavage with vehicle or with test compounds given at a volume of 0.5 mL/100 g. Food was withheld for 18 hours after the initial dosing. Rats were euthanized by CO2 eighteen hours after dosing. The stomachs were dissected along the greater curvature, washed with a directed stream of 0.9% saline and pinned open on a sylgard based petri dish for examination of the hemorrhagic lesion. Gastric lesion score was expressed in mm and calculated by summning the length of each lesion.

[3] = ratio of activity relative to the parent NSAID, oral gavage, fasted rats, eighteen hours after dosing
[4] = 100 μmole/Kg, ratio of activity relative to the parent NSAID, oral gavage, fasted rats, eighteen hours after dosing

Compound	Relative Activity Gastric Lesion (gastric lesion; [4])	Relative Activity Gastric Lesion (gastric lesion; rat, in vivo, po)	melting point	Relative Activity Analgesia [1]	Relative Activity Antiinflammation [2]	Relative Activity Gastric Lesion (gastric lesion; [3])
O=C(O)Cc1ccccc1Nc1c(Cl)cccc1Cl [Diclofenac, diclofenac, reference compound]	–	–	–	1	1	1
COc1ccc2c(c1)c(CC(=O)OCCC1(SN=O)CCN(C)CC1)c(C)n2C(=O)c1ccc(Cl)cc1.O=C(O)CC(O)(CC(=O)O)C(=O)O [Example 17, 2-[1-Methyl-4-(nitrosothio)-4-piperidyl]ethyl 2{1-[(4-chlorophenyl)carbonyl]-5-methoxy-2-methylindol-3-yl}acetate citrate]	<0.07 (100 μmole/Kg)	–	–	1	–	–
CN1CCC(CN(C)CCCOC(=O)Cc2ccccc2Nc2c(Cl)cccc2Cl)(SN=O)CC1 [Example 12, 3-(Methyl{[1-methyl-4-(nitrosothio)(4-piperidyl)]methyl}amino)propyl 2-{2-[(2,6-dichlorophenyl)amino]pheny}acetate]	–	–	–	–	–	0.06
COc1ccc2cc([C@H](C)C(=O)OCCC3(SN=O)CCN(C)CC3)ccc2c1.O=C(O)CC(O)(CC(=O)O)C(=O)O [Example 15, 2-[1-Methyl-4-(nitrosothio)-4-piperidyl]ethyl (2S) 2-(6-methoxy(2-naphthyl)) propanoate citrate]	0.1 (100 μmole/Kg)	–	–	1	1	–
COc1ccc2cc([C@H](C)C(=O)OCCN(C)CC3(SN=O)CCN(C)CC3)ccc2c1.Cl [Example 22, 2-(Methyl{[1-methyl-4-(nitrosothio)(4-piperidyl)]methyl}amino)ethyl (2S)-2-(6-methoxy(2-naphthyl))propanoate hydrochloride]	0.1 (100 μmole/Kg)	–	–	1	1	–
CN(Cc1ccc(OC(=O)Cc2ccccc2Nc2c(Cl)cccc2Cl)cc1)CC(C)(C)SN=O [Example 33, 4-({Methyl[2-methyl-2-(nitrosothio)propyl]amino}methyl)phenyl 2-{2-[(2,6-dichlorophenyl)amino]phenyl}acetate]	–	–	–	1	1	–
CC1(SN=O)CCN(CCOC(=O)Cc2ccccc2Nc2c(Cl)cccc2Cl)CC1.Cl [Example 1, 2-[4-Methyl-4-(nitrosothio)piperidyl]ethyl 2-{2-[(2,6-dichlorophenyl)amino]phenyl}acetate hydrochloride]	–	–	–	1.5	1.2	0.1
2-{2-[(2,6-Dichlorophenyl)amino]phenyl}-1-[2-(methyl{[(nitrosothio) cyclohexyl]methyl}amino)ethylthio]ethan-1-one [Example 32]	–	–	–	1	–	–
Cl.O=NSC1(CCOC(=O)Cc2ccccc2Nc2c(Cl)cccc2Cl)CCNCC1 [Example 6, 2-[4-(Nitrosothio)-4-piperdyl]ethyl 2-{2-[(2,6-dichlorophenyl)amino]phenyl}acetate hydrochloride]	–	–	–	–	–	0.02
CN(CCOC(=O)Cc1ccccc1Nc1c(Cl)cccc1Cl)CC1(SN=O)CCCCC1.Cl [Example 2, 2-(Methyl{[(nitrosothio)cyclohexyl]methyl}amino)ethyl 2-{2-[(2,6-dichlorophenyl)amino]phenyl}acetate hydrochloride]	–	–	–	1	1.2	0.02
COc1ccc2cc([C@H](C)C(=O)OC[C@@H]3NC(=O)[C@@H](C(C)(C)SN=O)NC3=O)ccc2c1 [Example 47, {(2S,5S)-5-[1-Methyl-1-(nitrosothio)ethyl]-3,6-dioxopiperazin-2-yl}methyl (2S)-2-(6-methoxy(2-naphthyl))propanoate]	–	–	> 180 °C (dec.)	–	–	–
CC(C)(CN1CCN(CCOC(=O)Cc2ccccc2Nc2c(Cl)cccc2Cl)CC1)SN=O.O=C(O)CC(O)(CC(=O)O)C(=O)O [Example 8, 2-{4-[2-Methyl-2-(nitrosothio)propyl]piperazinyl}ethyl 2-{2-[(2,6-dichlorophenyl)amino]phenyl}acetate citrate]	–	–	–	1.2	1.4	0.04
COc1ccc2cc([C@H](C)C(=O)OCCCN3C(=O)OC[C@H]3C(C)(C)SN=O)ccc2c1 [Example 44, 3-{(4S)-4-[1-Methyl-1-(nitrosothio)ethyl]-2-oxo-1,3-oxazolidin-3-yl}propyl (2S)-2-(6-methoxy(2-naphthyl))propanoate]	–	–	116 to 117 °C	–	–	–

More lines, main results first:

Relative Activity Gastric Lesion (gastric lesion; [4])	Relative Activity Gastric Lesion (gastric lesion; rat, in vivo, po)	melting point	Compound	Relative Activity Analgesia [1]	Relative Activity Antiinflammation [2]	Relative Activity Gastric Lesion (gastric lesion; [3])
0.1 (100 μmole/Kg)	–	–	CN1CCC(CCOC(=O)Cc2ccccc2Nc2c(Cl)cccc2Cl)(SN=O)CC1 [Example 13, 2-[1-Methyl-4-(nitrosothio)-4-piperidyl]ethyl 2-{2-[(2,6-dichlorophenyl)amino]phenyl}acetate citrate]	–	1	–
–	0.01	–	CN(CCCOC(=O)Cc1ccccc1Nc1c(Cl)cccc1Cl)CC1(SN=O)CCCCC1 [Example 4, 3-{Methyl{[(nitrosothio)cyclohexyl]methyl}amino)propyl 2-{2-[(2,6-dichlorophenyl)amino]phenyl}acetate]	0.9	1.3	–
0.02 (100 μmole/Kg)	–	–	CN(CCSC(=O)Cc1ccccc1Nc1c(Cl)cccc1Cl)CC(C)(C)SN=O.Cl [Example 31, 2-{2-[(2,6-Dichlorophenyl)amino]phenyl}-1-(2-{methyl[2-methyl-2-(nitrosothio)propyl]amino}ethylthio)ethan-1-one hydrochloride]	1	1	–
–	–	130 °C	CN1CCC(CCOC(=O)Cc2ccccc2Nc2c(Cl)cccc2Cl)(SN=O)CC1 (as salt: citrate) [Example 13, 2-[1-Methyl-4-(nitrosothio)-4-piperidyl]ethyl 2-{2-[(2,6-dichlorophenyl)amino]phenyl}acetate citrate]	–	–	–
